{
  "source": "patent US11931369B1",
  "about": "“Compositions and methods for treating epilepsy” (POVIVA CORP, priority 2023, dated 2024)",
  "origin": "cited, not measured here",
  "note": "Like-named read-outs stand apart in the source and are kept apart here.",
  "data": [
    {"smiles": "C=C(C)[C@@H]1CCC(C)=C[C@H]1c1c(O)cc(CCCCC)cc1O", "note": "[Cannabidiol, 2-[(1R,6R)-6-Isopropenyl-3-methylcyclohex-2-en-1-yl]-5-pentylbenzene-1,3-diol]", "values": [
      {"measurement": "Plasma concentration on Day 22 at target CBD dose, 5 hours, Mean", "setting": "5 mg/kg/day (N = 10)", "result": 72.1, "unit": "ng/mL"},
      {"measurement": "Plasma concentration on Day 22 at target CBD dose, Pre-dose, Mean", "setting": "5 mg/kg/day (N = 10)", "result": 23.0, "unit": "ng/mL"},
      {"measurement": "Plasma concentration on Day 22 at target CBD dose, […], Mean", "setting": "5 mg/kg/day (N = 10)", "result": 130, "unit": "ng/mL"},
      {"measurement": "Plasma concentration on Day 1 at starting CBD dose, 5 hours, Mean", "setting": "5 mg/kg/day group (N = 10)", "result": 10.0, "unit": "ng/mL"},
      {"measurement": "Plasma concentration on Day 1 at starting CBD dose, Pre-dose, Mean", "setting": "5 mg/kg/day group (N = 10)", "result": 0, "unit": "ng/mL"},
      {"measurement": "Plasma concentration on Day 1 at starting CBD dose, […], Mean", "setting": "5 mg/kg/day group (N = 10)", "result": 37.6, "unit": "ng/mL"},
      {"measurement": "Plasma concentration on Day 22 at target CBD dose, 5 hours, Mean", "setting": "10 mg/kg/day (N = 8)", "result": 288, "unit": "ng/mL"},
      {"measurement": "Plasma concentration on Day 22 at target CBD dose, Pre-dose, Mean", "setting": "10 mg/kg/day (N = 8)", "result": 62.1, "unit": "ng/mL"},
      {"measurement": "Plasma concentration on Day 22 at target CBD dose, […], Mean", "setting": "10 mg/kg/day (N = 8)", "result": 242, "unit": "ng/mL"},
      {"measurement": "Plasma concentration on Day 1 at starting CBD dose, 5 hours, Mean", "setting": "10 mg/kg/day group (N = 8)", "result": 11.3, "unit": "ng/mL"},
      {"measurement": "Plasma concentration on Day 1 at starting CBD dose, Pre-dose, Mean", "setting": "10 mg/kg/day group (N = 8)", "result": 0, "unit": "ng/mL"},
      {"measurement": "Plasma concentration on Day 1 at starting CBD dose, […], Mean", "setting": "10 mg/kg/day group (N = 8)", "result": 34.4, "unit": "ng/mL"},
      {"measurement": "Plasma concentration on Day 22 at target CBD dose, 5 hours, Mean", "setting": "20 mg/kg/day (N = 9)", "result": 308, "unit": "ng/mL"},
      {"measurement": "Plasma concentration on Day 22 at target CBD dose, Pre-dose, Mean", "setting": "20 mg/kg/day (N = 9)", "result": 121, "unit": "ng/mL"},
      {"measurement": "Plasma concentration on Day 22 at target CBD dose, […], Mean", "setting": "20 mg/kg/day (N = 9)", "result": 380, "unit": "ng/mL"},
      {"measurement": "Plasma concentration on Day 1 at starting CBD dose, 5 hours, Mean", "setting": "20 mg/kg/day group (N = 9)", "result": 25.3, "unit": "ng/mL"},
      {"measurement": "Plasma concentration on Day 1 at starting CBD dose, Pre-dose, Mean", "setting": "20 mg/kg/day group (N = 9)", "result": 0, "unit": "ng/mL"},
      {"measurement": "Plasma concentration on Day 1 at starting CBD dose, […], Mean", "setting": "20 mg/kg/day group (N = 9)", "result": 29.3, "unit": "ng/mL"}
    ]}
  ]
}
